Legend:
Format in all cases: in vivo, mouse
Ndufs4(KO) mice [1] = assay: Body weight, growth and cachexia onset
Protocol: Ndufs4(+/−) mice were bred to produce Ndufs4(KO) (Ndufs4(−/−)) offspring. Mice were weaned at 20-21 days of age. Ndufs4(KO) animals were housed with a minimum of one control littermate for warmth and stimulation. Mice were weighed, and health assessed, a minimum of 3 times per week, every other day (daily for IP injected mice, see herein). Where longitudinal blood point-of-care data was collected, this was performed during these health checks. Wetted chow in a dish on the bottom of each cage, and in-cage water bottles, were provided to all cages housing Ndufs4(KO) mice following the onset of disease so that the ability to find or reach food or water was not a limiting factor for survival.
Cachexia in FIG. 4H and FIG. 6E is the day of life when weight peaks prior to the progressive weight loss which occurs in untreated Ndufs4(KO) animals.

[2] = test system: CNS lesions in Ndufs4(KO) mice; assay: Brain immunological staining: brainstem and cerebellar CNS lesions; conditions: 300 mg/kg/day
Protocol: (§1) Brain immunological staining and microscopy. Brains were fixed for 48 hours in 10% formalin at 4° C. Following fixation, brains were moved to a cryoprotectant solution (30% sucrose, 1% DMSO, 100 μM glycine, 1×PBS, 0.45 μm filtered, pH 7.5), and stored for over 48 hours, until the fixed tissues sank to the bottom. Tissues were then placed in OCT media (Tissue-Tek OCT compound, Sakura 0004348-01), frozen in cryoblock holders on dry ice, and stored at −80° C. until sectioned for staining. Cryoblocks were cut at 50 μm thickness using a Leica CM30505 cryostat set at −40° C. Slices were moved to 1×PBS and stored at 4° C. until used for staining. Prior to staining, slices were mounted on slides and briefly dried to adhere.
(§2) Antibody staining was performed as follows: slides were first incubated in an antigen retrieval and permeabilization buffer (0.05% Triton X-100, 50 μM digitonin, 10 mM Tris-HCl, 1 mM EDTA, pH 9.0) at 60° C. overnight in a white-light LED illuminated box (to promote photobleaching of tissue autofluorescence). To reduce formaldehyde induced background fluorescence, slides were treated with sodium borohydride in ice cold PBS, added at 1 mg/mL immediately before incubation, on ice for 30 min, then moved to 10 mM glycine 1×PBS, pH 7.4, for 5 min at room temperature. Lipid background fluorescence was then blocked by incubating slides in 0.2 μm filtered Sudan Black B solution (5 mg/mL in 70% ethanol) overnight at room temperature. Slides were then rinsed twice, 5 min each, in 1×PBS. Excess fluid was wiped from the slide, and the tissue was circled using Liquid Blocker PAP pen (Fisher Scientific, NC9827128) to hold staining solutions. Slides were blocked for 15 min at room temperature in 1×PBS with 10% rabbit serum (Gibco, 16120-099) then stained overnight at 4° C. in a mixture of rabbit anti-IBA1-fluorochrome 635 conjugated (WAKO 013-26471) at 1:300, mouse anti-GFAP, Alexa555 conjugated (Cell Signaling, 3656S) at 1:300, and DAPI (Sigma, D9542) at 1 μg/mL. […]

[3] = test system: non-lesion CNS tissue in Ndufs4(KO) mice; assay: Brain immunological staining: microglia and astrocytes in cortex and brainstem outside of overt lesions; conditions: 300 mg/kg/day
Protocol: as §1, §2

Ndufs4(KO) mice [4] = assay: Rotarod induced seizures
Protocol: Rotarod and rotarod seizures. Rotarod assays were performed using a Med Associates Inc. (Fairfax, VT) ENV-571M single lane rotarod with a black mat installed in the floor of the lane to reduce visibility of the bottom. Assays were performed by placing animals onto an already rotating rod and timing latency to fall, with a steady rotation speed set to 6 rpm (controlled by attached laptop and Med Associates software). The maximum time of each trial was 10 min, with the trial ending at that time if mice were still on the rotarod. For each assay, three trials were performed, with a minimum of 5 min between each assay. The best of the three trials was reported for the rotarod data. As detailed in the text and figure legends, rotarod was performed each 10 days of age from P30; mice in a given age group were the reported age +/−1 day.
Mice were monitored throughout each assay for seizure activity, and rotarod performance trials were ended if a seizure was observed. […]

Question: Which cachexia (Ndufs4(KO) mice [1]) does the source give for `FC(F)(F)c1ccc(CNc2ccc(Cc3c[nH]c4ncc(Cl)cc34)cn2)cn1` [pexidartinib, 5-[(5-chloro-1H-pyrrolo[2,3-b]pyridin-3-yl)methyl]-N-[[6-(trifluoromethyl)pyridin-3-yl]methyl]pyridin-2-amine] here?
Answer: Its cachexia is “prevented”.

Question: What about the “gliosis (microgliosis and astrocytosis) at CNS lesion sites” value [2] of the same compound?
Answer: Its value is “completely prevented”.

Question: What about the “brainstem CNS lesions” value ([2]; immunohistochemistry) of the same compound?
Answer: The value was “complete (as detected by immunohistochemistry) prevention”.

Question: What about the “cerebellar CNS lesions” value ([2]; immunohistochemistry) of the same compound?
Answer: The value was “complete (as detected by immunohistochemistry) prevention”.

Question: And the “astrocyte numbers in non-lesion CNS tissue” value [3]?
Answer: Its value is “rescued to control levels”.

Question: What about the “microglia numbers in non-lesion CNS tissue” value ([3]; beyond that of untreated control animals) of the same compound?
Answer: Its value is “near complete depletion of microglia”.

Question: What about the “astrocytosis and microgliosis in non-lesion CNS tissue” value ([3]; cortex and brainstem outside overt lesions) of the same compound?
Answer: Its value is “prevented both forms of gliosis”.

Question: And the time-to-seizure (Ndufs4(KO) mice [4]; Ndufs4(KO) mice at P30, rotarod assay)?
Answer: Its time-to-seizure is “markedly reduced”.

Question: And the “incidence of rotarod induced seizures” value (Ndufs4(KO) mice [4]; Ndufs4(KO) mice at P30, untreated 30%)?
Answer: Its value is “markedly reduced”.
